The NIST ThermoML archive (doi:10.1021/acs.jced.5b00270)

Conditions: Liquid, Capillary tube (Ostwald / Ubbelohde) method

C1CCCCC1 [cyclohexane]
Conditions | viscosity [mPa·s]
303.1 K, 2930 kPa | 0.852
305.1 K, 960 kPa | 0.801
305.2 K, 140 kPa | 0.796
305.2 K, 1960 kPa | 0.819
305.2 K, 3940 kPa | 0.839
313.8 K, 2920 kPa | 0.721
323.7 K, 150 kPa | 0.601
323.7 K, 1990 kPa | 0.614
323.7 K, 4000 kPa | 0.631
324 K, 1020 kPa | 0.616
348.9 K, 140 kPa | 0.432
348.9 K, 990 kPa | 0.44
348.9 K, 2080 kPa | 0.445
348.9 K, 3030 kPa | 0.451
348.9 K, 3930 kPa | 0.449
373.7 K, 970 kPa | 0.331
373.7 K, 2020 kPa | 0.336
373.7 K, 2930 kPa | 0.34
373.7 K, 3960 kPa | 0.346
398.1 K, 2000 kPa | 0.262
398.1 K, 4010 kPa | 0.27
398.2 K, 960 kPa | 0.258
398.2 K, 2940 kPa | 0.266
422.4 K, 960 kPa | 0.204
422.5 K, 1970 kPa | 0.209
422.5 K, 2960 kPa | 0.214
422.5 K, 3960 kPa | 0.216
447.5 K, 1010 kPa | 0.165
447.6 K, 2040 kPa | 0.165
447.7 K, 3010 kPa | 0.17
447.7 K, 4000 kPa | 0.174
473.3 K, 3000 kPa | 0.138
473.4 K, 1930 kPa | 0.131
473.4 K, 3930 kPa | 0.139
497.9 K, 3050 kPa | 0.106
498.1 K, 3980 kPa | 0.11
498.2 K, 3020 kPa | 0.106
498.3 K, 4020 kPa | 0.11
523 K, 3050 kPa | 0.0791
523 K, 3970 kPa | 0.0856

CCCCCCCCCC [decane]
Conditions | viscosity [mPa·s]
303.1 K, 3970 kPa | 0.828
303.2 K, 960 kPa | 0.8
303.2 K, 3010 kPa | 0.814
303.3 K, 150 kPa | 0.788
303.3 K, 2000 kPa | 0.808
323.7 K, 1120 kPa | 0.617
323.7 K, 1990 kPa | 0.628
323.7 K, 3010 kPa | 0.625
323.8 K, 140 kPa | 0.606
323.8 K, 3960 kPa | 0.631
348.9 K, 140 kPa | 0.459
348.9 K, 1050 kPa | 0.465
348.9 K, 2090 kPa | 0.469
348.9 K, 2930 kPa | 0.475
348.9 K, 3950 kPa | 0.481
373.7 K, 130 kPa | 0.365
373.7 K, 960 kPa | 0.368
373.7 K, 2040 kPa | 0.373
373.7 K, 2890 kPa | 0.376
373.7 K, 3960 kPa | 0.381
398.1 K, 3940 kPa | 0.312
398.2 K, 140 kPa | 0.295
398.2 K, 990 kPa | 0.299
398.2 K, 2030 kPa | 0.304
398.2 K, 2910 kPa | 0.309
423.4 K, 2960 kPa | 0.254
423.4 K, 3940 kPa | 0.258
423.5 K, 950 kPa | 0.247
423.5 K, 1060 kPa | 0.246
423.5 K, 2110 kPa | 0.251
447.7 K, 1060 kPa | 0.206
447.7 K, 1990 kPa | 0.209
447.7 K, 2960 kPa | 0.212
447.7 K, 3990 kPa | 0.216
473.4 K, 2150 kPa | 0.174
473.4 K, 2920 kPa | 0.177
473.4 K, 3990 kPa | 0.18
498.2 K, 3890 kPa | 0.152
498.3 K, 2090 kPa | 0.146
498.3 K, 3060 kPa | 0.15
523 K, 3970 kPa | 0.129
523.1 K, 1060 kPa | 0.118
523.1 K, 1940 kPa | 0.122
523.1 K, 3000 kPa | 0.126
547.9 K, 1070 kPa | 0.0957
547.9 K, 1980 kPa | 0.1
547.9 K, 2940 kPa | 0.105
547.9 K, 4000 kPa | 0.108
573.6 K, 1930 kPa | 0.0796
573.7 K, 2970 kPa | 0.0855
573.8 K, 4030 kPa | 0.091
598.4 K, 4020 kPa | 0.0745
598.5 K, 2090 kPa | 0.0619
598.5 K, 2980 kPa | 0.0696
